Consider 1 molecule from patent US20040242459A1 (priority 2001, published 2004).

In experiment [1] the test system is PPAR-α, PPAR-γ and PPAR-δ. As to the kind of experiment: Classification of ligands according to their PPAR activity (Table A). To be noted: classification based on IC50 and EC50 data of Table B. The arrangement: species or system human.
Experiment [2] concerns the target T1, recombinant human PPARγ (GST-PPARγ) (Homo sapiens, UniProt P37231).
T1 construct: The full length human cDNA for PPARγ 2 was subcloned into the pGEX-2 T expression vector; made in house; host or cells: E. coli
T1 sequence (P37231 1-505): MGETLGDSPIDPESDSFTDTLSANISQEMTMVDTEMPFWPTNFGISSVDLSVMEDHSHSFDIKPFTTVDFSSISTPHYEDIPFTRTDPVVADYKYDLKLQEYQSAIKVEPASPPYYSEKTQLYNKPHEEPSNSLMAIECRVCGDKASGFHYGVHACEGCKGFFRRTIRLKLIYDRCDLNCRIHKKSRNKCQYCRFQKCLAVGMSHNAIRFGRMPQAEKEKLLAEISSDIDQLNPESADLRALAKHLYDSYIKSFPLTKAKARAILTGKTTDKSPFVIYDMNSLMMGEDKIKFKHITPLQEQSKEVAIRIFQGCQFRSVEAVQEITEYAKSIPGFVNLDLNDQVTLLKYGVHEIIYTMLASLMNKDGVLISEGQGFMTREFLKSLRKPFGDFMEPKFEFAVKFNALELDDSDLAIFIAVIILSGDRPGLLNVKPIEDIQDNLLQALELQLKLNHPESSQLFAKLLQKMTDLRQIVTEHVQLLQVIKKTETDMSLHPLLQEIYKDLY
As to the kind of experiment: Scintillation Proximity Assay, displacement of [3H2]Compound A from PPARγ. It is filed as binding. Particulars: human PPARγ binding; read-out: IC50 (μM: SPA or BND) Gamma. The source says: As an approach to identifying human PPAR agonists, a Scintillation Proximity Assay was used to characterize PPAR-γ, PPAR-δ, and PPAR-α ligands.
Human PPARγ2, human PPARδ and human PPARα were expressed as GST-fusion proteins in E. coli. The full length human cDNA for PPARγ 2 was subcloned into the pGEX-2 T expression vector (Amersham Pharmacia Biotech, Inc.). The full length human cDNAs for PPARδ and PPARα were subcloned into the pGEX-KT expression vector (Amersham Pharmacia Biotech, Inc.). E. coli containing the respective plasmids were propagated, induced, and harvested by centrifugation. The resuspended pellet was broken in a French press and debris removed by centrifugation. Recombinant human PPAR receptors were purified by affinity chromatography on glutathione sepharose. After application to the column, and one wash, receptor was eluted with glutathione. Glycerol (10%) was added to stabilize the receptor and aliquots were stored at −80° C.
After incubation for ˜16 h at 15° C. with shaking, the assay plates were counted in a Packard Topcount with quench correction.
In general terms: SPA uses beads or plates that emit light when radiolabelled molecules are held near them.

The target of experiment [3] is T2, hPPARα/GAL4 (Homo sapiens, UniProt Q07869).
T2 construct: expressed in transfected cells; host or cells: COS-1 cells
As to the kind of experiment: Gal-4 hPPAR transactivation assay in COS-1 cells (alpha). It is filed as cell-based. Particulars: two values separated by a slash in some cells. How it is done:
(§1) The chimeric receptor expression constructs, pcDNA3-hPPARγ/GAL4, pcDNA3-hPPARδ/GAL4, pcDNA3-hPPARα/GAL4 were prepared by inserting the yeast GAL4 transcription factor DBD adjacent to the ligand binding domains (LBDs) of hPPARγ, hPPARδ, hPPARα, respectively. The reporter construct, pUAS(5×)-tk-luc was generated by inserting 5 copies of the GAL4 response element upstream of the herpes virus minimal thymidine kinase promoter and the luciferase reporter gene. pCMV-lacZ contains the galactosidase Z gene under the regulation of the cytomegalovirus promoter. COS-1 cells were seeded at 12×10^3 cells/well in 96 well cell culture plates in high glucose Dulbecco's modified Eagle medium (DMEM) containing 10% charcoal stripped fetal calf serum (Gemini Bio-Products, Calabasas, Calif.), nonessential amino acids, 100 units/ml Penicillin G and […] Streptomycin sulfate at 37° C. in a humidified atmosphere of 10% CO2. After 24 h, transfections were performed with Lipofectamine (GIBCO BRL, Gaithersburg, Md.) according to the instructions of the manufacturer. […] Luciferase activity in cell extracts was determined using Luciferase Assay Buffer (Promega, Madison, Wis.) in an ML3000 luminometer (Dynatech Laboratories, Chantilly, Va.). β-galactosidase activity was determined using β-D-galactopyranoside (Calbiochem, San Diego, Calif.).

The target in experiment [4] is T3, hPPARδ/GAL4 (Homo sapiens, UniProt Q03181).
T3 construct: expressed in transfected cells; host or cells: COS-1 cells
As to the kind of experiment: Gal-4 hPPAR transactivation assay in COS-1 cells (delta). It is filed as cell-based. Particulars: two values separated by a slash in some cells. How it is done: as §1

Where “and” joins values, the source holds several entries; their conditions need not be identical. Equal entries are not always repeated.

T2 sequence (Q07869 239-466 limits assumed): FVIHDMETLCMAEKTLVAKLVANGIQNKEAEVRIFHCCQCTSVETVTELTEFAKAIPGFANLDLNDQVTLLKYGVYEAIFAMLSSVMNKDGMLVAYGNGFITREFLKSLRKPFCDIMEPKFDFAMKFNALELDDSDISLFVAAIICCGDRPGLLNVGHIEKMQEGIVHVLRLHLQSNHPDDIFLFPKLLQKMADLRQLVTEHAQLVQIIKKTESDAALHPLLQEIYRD
T2 sequence (P04386 1-147 partner limits assumed): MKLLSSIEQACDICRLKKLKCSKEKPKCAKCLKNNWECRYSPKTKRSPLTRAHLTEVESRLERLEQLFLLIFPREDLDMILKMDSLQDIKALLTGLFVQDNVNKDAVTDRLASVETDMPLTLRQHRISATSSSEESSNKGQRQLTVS
T3 sequence (Q03181 211-439 limits assumed): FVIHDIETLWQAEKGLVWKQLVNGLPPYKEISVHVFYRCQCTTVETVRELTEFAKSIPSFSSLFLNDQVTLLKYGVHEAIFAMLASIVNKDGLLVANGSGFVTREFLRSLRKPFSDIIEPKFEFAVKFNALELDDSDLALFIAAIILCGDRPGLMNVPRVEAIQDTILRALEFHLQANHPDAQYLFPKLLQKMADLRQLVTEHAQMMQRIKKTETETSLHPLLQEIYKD
T3 sequence (P04386 1-147 partner limits assumed): as the sequence (P04386 1-147 partner limits assumed) above

Take `CCCc1cc(Oc2ccccc2)ccc1OCCc1cc2cc(CC(=O)O)ccc2[nH]1` [Compound 2, {2-[2-(4-phenoxy-2-propylphenoxy)ethyl]-1H-indol-5-yl}acetic acid]: the “PPAR Activity” value in experiment [1] is “Gamma Agonist”. For the same molecule, the IC50 in experiment [2] was found to be 0.097 µM. Besides, the EC50 is 1.05 µM and 1.2 µM in experiment [3]; 3 µM in experiment [4].

What is called IC50 is the concentration at which inhibition is half-maximal. A word on the EC50: it is the concentration needed to bring the measured effect to its halfway point. A higher EC50 goes with lower potency in that assay.
